# Test results: article PMC8752738, “A propolis-derived small molecule ameliorates metabolic syndrome in obese mice by targeting the CREB/CRTC2 transcriptional complex” (Nature Communications, 2022)
# “And” between values parts separate entries of the source, which are not always exact repeats. Equal entries are not always repeated.
# Test system: tissue mRNA levels
# Assay: Quantitative PCR of tissue gene expression in treated mice
# Assay type: in vivo, mouse
# Design: key to mRNA levels Scap / mRNA levels Insig1 / mRNA levels Ldlr / mRNA levels Mttp / mRNA levels Atgl / mRNA levels Tnfaip2 / mRNA levels Rxra / mRNA levels Srebf1 / mRNA levels Ucp2: mRNA level normalized to ribosomal L32 mRNA (internal control)
# Method: Total RNA from cells and tissues was extracted by Trizol (Invitrogen) and reverse-transcribed into cDNA using the prime script RT reagent kit with gDNA eraser (Takara). The mRNA levels were determined using the SYBR-green PCR kit (Takara) with ABIPRISM 7900HT Sequence detector (ABI) according to the manufacturer’s protocol. The quantitative qPCR primers used in this work are listed in Supplementary Table 1. Ribosomal L32 mRNA levels were used as an internal control.
# [1] = Figure 6c, liver of DIO mice, individual animals
# [2] = Figure 6e, BAT genes in DIO, individual animals
# [3] = Figure 6e, group mean of APC-treated mice
# [4] = Figure 6f, CRTC2KO mice, oral APC
# [5] = Figure 6f, CRTC2KO mice, oral APC, group mean, N 6
compound,measurement,setting,value
"CC(C)=CCc1cc(C=CC(=O)O)cc(CC=C(C)C)c1O [APC, 3,5-diprenyl-4-hydroxycinnamic acid]",mRNA levels Insig2b,[1],1.5012 and 1.204 and 1.275 and 1.326 and 1.226 and 1.358
same,mRNA levels Ldlr,[1],0.5776 and 0.5891 and 0.5493 and 0.4914 and 0.6354 and 0.4723
same,mRNA levels Lipg,[1],1.701 and 1.759 and 1.656 and 1.597 and 1.253 and 1.321
same,mRNA levels Lxra,[1],0.4169 and 0.5629 and 0.5095 and 0.7537 and 0.4614 and 0.533
same,mRNA levels Mgll,[1],1.478 and 2.215 and 1.692 and 2.155 and 1.663 and 2.019
same,mRNA levels Mttp,[1],0.5875 and 0.5564 and 0.479 and 0.4246 and 0.6126 and 0.6576
same,mRNA levels Pcsk9,[1],0.8854 and 0.7972 and 0.6933 and 0.8757 and 0.803 and 0.7825
same,mRNA levels Pgc-1a,[1],0.841 and 0.8137 and 0.7443 and 0.6176 and 0.7797 and 0.5053
same,mRNA levels Pgc-1b,[1],0.6848 and 0.6024 and 0.8301 and 0.5369 and 0.6396 and 0.6129
same,mRNA levels Scap,[1],0.7134 and 0.6924 and 0.8986 and 0.7526 and 0.8965 and 0.6035
same,mRNA levels Scd1,[1],1.593 and 1.385 and 1.755 and 1.2873 and 1.57 and 1.603
same,"relative mRNA levels Cpt1, Difference (Mean of VEH - Mean of APC)",Figure 6e,-0.4965
same,"relative mRNA levels Glut4, Difference (Mean of VEH - Mean of APC)",Figure 6e,-0.8396
same,"relative mRNA levels Hsl, Difference (Mean of VEH - Mean of APC)",Figure 6e,-0.512
same,"relative mRNA levels Mgl1, Difference (Mean of VEH - Mean of APC)",Figure 6e,-0.489
same,"relative mRNA levels Pgc-1α, Difference (Mean of VEH - Mean of APC)",Figure 6e,0.4001
same,"relative mRNA levels Pgc-1β, Difference (Mean of VEH - Mean of APC)",Figure 6e,0.2648
same,"relative mRNA levels Scd1, Difference (Mean of VEH - Mean of APC)",Figure 6e,0.2529
same,"relative mRNA levels Ucp1, Difference (Mean of VEH - Mean of APC)",Figure 6e,0.6029
same,"relative mRNA levels Ucp2, Difference (Mean of VEH - Mean of APC)",Figure 6e,-0.7752
same,"relative mRNA levels Ucp3, Difference (Mean of VEH - Mean of APC)",Figure 6e,-0.7811
same,"mRNA levels Rxrα, Mean of APC","Figure 6e, BAT genes in DIO, group mean, Mean of VEH 1.022",0.997
same,"mRNA levels Pparγ, Mean of APC","Figure 6e, BAT genes in DIO, group mean, Mean of VEH 1.045",1.136
same,"mRNA levels Pparα, Mean of APC","Figure 6e, BAT genes in DIO, group mean, Mean of VEH 1.047",1.002
same,"mRNA levels Srebf-1c, Mean of APC","Figure 6e, BAT genes in DIO, group mean, Mean of VEH 1.079",0.67
same,mRNA levels Cpt1,[2],1.405 and 1.301 and 1.366 and 1.861 and 1.273 and 1.67
same,mRNA levels Glut4,[2],2.222 and 2.223 and 2.091 and 1.366 and 1.861 and 1.914
same,mRNA levels Hsl,[2],1.929 and 1.285 and 1.044 and 1.492 and 1.691 and 1.784
same,mRNA levels Mgl1,[2],1.571 and 1.671 and 1.448 and 1.19 and 1.394 and 1.429
same,mRNA levels Pgc-1a,[2],0.4882 and 0.6962 and 0.7342 and 0.6823 and 0.3242 and 0.5895
same,mRNA levels Pgc-1b,[2],0.7936 and 0.7877 and 0.8205 and 0.6233 and 0.5976 and 0.7915
same,mRNA levels Ppara,[2],0.957 and 1.069 and 1.282 and 0.4348 and 0.8215 and 1.448
same,mRNA levels Pparg,[2],1.223 and 1.057 and 1.279 and 0.9002 and 1.182 and 1.178
same,mRNA levels Rxra,[2],1.299 and 0.7585 and 0.6344 and 1.152 and 1.145 and 0.9935
same,mRNA levels Scd1,[2],0.7542 and 0.5583 and 0.6317 and 0.6691 and 0.5321 and 0.7971
same,mRNA levels Srebf1,[2],0.76 and 0.6196 and 0.6214 and 0.595 and 0.7194 and 0.7042
same,mRNA levels Ucp1,[2],0.4272 and 0.4661 and 0.4353 and 0.3244 and 0.4398 and 0.6531
same,mRNA levels Ucp2,[2],1.948 and 2.049 and 1.871 and 1.366 and 1.861 and 1.31
same,mRNA levels Ucp3,[2],2.385 and 1.61 and 1.317 and 1.964 and 1.366 and 1.861
same,"relative mRNA levels Cpt1, Mean of APC",[3],1.479
same,"relative mRNA levels Glut4, Mean of APC",[3],1.946
same,"relative mRNA levels Hsl, Mean of APC",[3],1.538
same,"relative mRNA levels Mgl1, Mean of APC",[3],1.451
same,"relative mRNA levels Pgc-1α, Mean of APC",[3],0.5858
same,"relative mRNA levels Pgc-1β, Mean of APC",[3],0.7357
same,"relative mRNA levels Scd1, Mean of APC",[3],0.6571
same,"relative mRNA levels Ucp1, Mean of APC",[3],0.4576
same,"relative mRNA levels Ucp2, Mean of APC",[3],1.734
same,"relative mRNA levels Ucp3, Mean of APC",[3],1.751
same,"mRNA of Srebf-1c, Mean Diff. APC - VEH",[4],0.1559
same,"mRNA of Srebf-2, Mean Diff. APC - VEH",[4],-0.03887
same,"mRNA of Srebf-1c, Mean 1 (APC)",[5],0.6887
same,"mRNA of Srebf-2, Mean 1 (APC)",[5],0.7827
